Here are results for 38 molecules from patent US12673039B2, “Methods of inducing autophagy using coumarin derivatives and related compounds” (Buck Institute for Research on Aging, priority 2019, dated 2026).

The subject of one test is TFEB. The test can be described thus: TFEB activation screen, % activation/control at 24 and 48 hrs (Table 1). The format is cell-based, human. To be noted: Homo sapiens, 24 h. How it is done:
FIG. 25, panels A-B::AIC106 identified as a lead compound in a TFEB-transcription based screen. Panel A) Rat Neuronal N27 cells were transfected with a vector construct driving expression of secreted-Gaussia luciferase (Sec-Gaussia) in control of 2 kb human TFEB promoter. Next day, cells were seeded into 96-well cell culture plate and exposed to compounds (30 μM) from natural product library (NPL-640) or DMSO-control. After 24 and 48 hours of compound treatment supernatant from the cells was collected and TFEB promoter activity determined by quantifying luciferase activity. Panel B) Effects of AIC106 treatment on HLH-30 expression after 24 hours treatment were determined by immunoblot against GFP in young adult stage of GFP-tagged HLH-30 strain (MAH235) following total protein extraction.
It was discovered that small structural alterations in the C1 compound can have significant effects on the degree of TFEB activation (see, e.g., FIG. 17) the screening systems described herein identified a number of structures related to C1 that similarly induce TFEB.
In vitro drug screening studies. […] We utilized for these studies a 3000 compound natural product derivative library (Timtec, Newark, DE) in […] transfected with a sensitive TFEB promotor-Gaussian luciferase construct. […] C1 is a coumarin-related compound, part of a family of natural benzopyrones found in many edible plants.
To identify novel transcriptional inducers of TFEB, we transfected rat neuronal N27 cells with a vector driving expression of secreted-luciferase under control of the human TFEB promoter. […] AIC106 belongs to a family of coumarin compounds containing an active benzopyrone ring.
Take `O=C(O)c1ccccc1-c1c2ccc(=O)cc-2oc2cc(O)ccc12` [A2]: the activity at 30 µM was determined as 293%.

On to `O=c1oc2cc(O)ccc2c(Cc2ccc(Cl)cc2)c1-c1ccccc1` [A3], for which the activity at 30 µM was 324%. Regarding `Cc1cc2oc(=O)c(-c3ccc(Cl)cc3Cl)c(-c3ccccc3)c2cc1Cl` [A4], the activity at 30 µM was 361%. `Cc1cc2oc(=O)c(-c3ccccc3)c(-c3ccccc3)c2cc1Cl` [A5]: the activity at 30 µM was determined as 62.3%. Still for that read-out and setting: for `Cc1cc2oc(=O)c(-c3ccccc3Cl)c(-c3ccccc3)c2cc1Cl` [A6] the value was 76.6%; for `O=c1oc2c(Br)cc(Cl)cc2c(-c2ccccc2)c1-c1ccc(Br)cc1` [B2], 331%; for `O=c1oc2ccccc2c(-c2ccccc2)c1-c1ccc(Cl)cc1Cl` [B3], 338%. Same read-out and setting: for `Cc1ccc2c(-c3ccccc3)c(-c3ccc(Br)cc3)c(=O)oc2c1` [B4] the value was 390%; for `O=c1oc2ccc(Cl)cc2c(-c2ccccc2)c1-c1ccc(Cl)cc1Cl` [B5], 83.2%; for `Cc1ccc2oc(=O)c(-c3ccc(Cl)cc3Cl)c(-c3ccc(Cl)cc3)c2c1` [B6], 91.2%. The same measure, in the same setting: the value for `O=c1oc2cc(O)ccc2c(-c2ccccc2)c1-c1ccccc1` [C2] was 311%.

In the case of `O=c1oc2cc(O)cc(-c3ccccc3)c2cc1-c1ccccc1Cl` [C3 ST081388], the activity at 30 µM was 317%. `CC(C)(C)OC(=O)C1Cc2cc3c4c(c2OC1=O)CCCN4CCC3` (centres unmarked) [C3 ST083673]: the activity at 30 µM turned out to be 328%.

Regarding `O=c1oc2ccc(Br)cc2c(-c2ccc(Cl)cc2)c1-c1ccc(Cl)cc1Cl` [C4], the activity at 30 µM turned out to be 432%. For `O=c1oc2c(Cl)cc(Cl)cc2c(-c2ccccc2)c1-c1ccccc1` [C5], the activity at 30 µM was determined as 87.2%. On the same count and under the same terms, the value for `O=c1oc2c(Cl)cc(Cl)cc2c(-c2ccc(Cl)cc2)c1-c1ccccc1` [C6] was 104%; that for `O=C(O)C1Cc2cc3c4c(c2CC1=O)CCCN4CCC3` (centres unmarked) [D2] was 336%; that for `COc1ccc(-c2c(-c3ccccc3)c3ccc(O)cc3oc2=O)c(Cl)c1OC` [D3] was 381%. The same measure, in the same setting: for `O=c1oc2ccc(Cl)cc2c(-c2ccccc2)c1-c1ccccc1Cl` [D4] the value was 369%; for `Cc1cc2oc(=O)c(-c3ccc(Cl)cc3)c(-c3ccc(Cl)cc3)c2cc1Cl` [D5], 103%.

For `Cc1cc2oc(=O)c(-c3ccc(Cl)cc3Cl)c(-c3ccc(Cl)cc3)c2cc1Cl` [D6], the activity at 30 µM worked out at 360%. Same read-out and setting: for `O=c1oc2ccc(Br)cc2c(-c2ccccc2)c1-c1ccccc1Cl` [E3] the value was 347%; for `C=CCOc1ccc2c(-c3ccccc3)c(-c3cccc(Br)c3)c(=O)oc2c1` [E4], 400%; for `O=c1oc2ccc(Br)cc2c(-c2ccccc2)c1-c1ccc(Br)cc1` [E5], 92.5%.

On to `O=CC1Cc2cc3c4c(c2OC1=O)CCCN4CCC3` (centres unmarked) [E6], for which the activity at 30 µM is 367%. Take `COc1ccc(-c2c(-c3ccccc3)c3ccc(O)cc3oc2=O)c(Cl)c1` [F2]: the activity at 30 µM was found to be 341%. As to `O=c1oc2ccc(Br)cc2c(-c2ccccc2Cl)c1-c1cccc(Cl)c1` [F3], the activity at 30 µM was determined as 302%.

Consider `O=c1oc2ccc(Br)cc2c(-c2ccccc2)c1-c1cccc(Cl)c1` [F4], for which the activity at 30 µM was determined as 365%. The same measure, in the same setting: for `O=c1oc2c(Cl)cc(Cl)cc2c(-c2ccccc2)c1-c1ccc(Cl)cc1Cl` [F5] the value was 105%. On the same count and under the same terms, for `O=c1oc2cc(O)ccc2c(Cc2ccccc2)c1-c1ccccc1` [G2] the value was 341%. Still for that read-out and setting: the value for `O=c1oc2ccc(Br)cc2c(-c2ccc(Cl)cc2)c1-c1ccc(Cl)cc1` [G3] was 365%.

As for `Cc1cc2oc(=O)c(-c3ccc(Br)cc3)c(-c3ccccc3)c2cc1Cl` [G4], the activity at 30 µM turned out to be 390%. Take `O=c1oc2ccccc2c(-c2ccccc2)c1-c1cccc(Br)c1` [G5]: the activity at 30 µM turned out to be 65.1%. As to `O=c1oc2cc(O)ccc2c(-c2ccccc2)c1-c1cccc(Cl)c1` [H2], the activity at 30 µM was found to be 334%.

Turning to `O=c1oc2ccc(Cl)cc2c(-c2ccc(Cl)cc2)c1-c1ccc(Cl)cc1` [H3], the activity at 30 µM came out at 361%. Consider `O=c1oc2ccccc2c(-c2ccccc2)c1-c1ccccc1` [H4], for which the activity at 30 µM is 346%. On to `Cc1ccc2oc(=O)c(-c3ccccc3)c(-c3ccccc3)c2c1` [H5], for which the activity at 30 µM turned out to be 70.1%.

Another test deals with T1, DAF-12 (Caenorhabditis elegans, UniProt G5EFF5).
T1 construct: expressed in transfected cells; host or cells: HEK293T
T1 sequence (G5EFF5 516-753 limits assumed): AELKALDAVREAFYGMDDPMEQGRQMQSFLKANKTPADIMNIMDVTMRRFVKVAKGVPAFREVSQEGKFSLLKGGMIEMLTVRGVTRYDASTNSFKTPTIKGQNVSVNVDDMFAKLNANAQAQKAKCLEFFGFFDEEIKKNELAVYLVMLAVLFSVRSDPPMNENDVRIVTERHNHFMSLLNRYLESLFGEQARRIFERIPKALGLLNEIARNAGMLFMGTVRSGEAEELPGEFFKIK
Kind of test: Mammalian one-hybrid DAF-12 activity assay (HEK293T). The note with it: compound alone. In kind it is cell-based, human. How it is done:
FIG. 10 illustrates that coumarin 106 (“C1”, “AIC106”) inhibits induction of the worm FXR homologue DAF-12. The ability of C1 (10 μM) to inhibit activation of the FXR worm homologue DAF-12 by its ligand dafachronic acid (Df acid); values are fold activity induction versus untreated controls; ****p<0.01 versus GW; **p<0.05 versus GW.
FIG. 22, panels A-H: AIC106-induced HLH-30 expression is mediated by the nuclear hormone receptor DAF-12. Panel A) The upstream promoter region (2 kB) of hlh-30 was analyzed by JASPAR CORE database to determine DAF-12 binding sites (1: SEQ ID NO:1, 2: 1: SEQ ID NO:2, 3: SEQ ID NO:3, 4: SEQ ID NO:4, 5: SEQ ID NO:5, 6: SEQ ID NO:6, 7: SEQ ID NO:7, 8: SEQ ID NO:8, 9: SEQ ID NO:9, 10: SEQ ID NO:10, 11: SEQ ID NO:11, 12: SEQ ID NO:12). Panel B) Relative fold change in mRNA of hlh-30 compared to DMSO-control was quantified using qRT-PCR in young adult wild-type N2 and daf-12(rh61rh411) worms post-24 hours treatment with AIC106. [N=3 independent experiments (mean±SD). **p<0.01, by one-way ANOVA with Sidak's multiple comparisons test]. Panel C) Effects of AIC106 on DAF-12 activity was determined in a mammalian one-hybrid assay by quantifying changes in the luciferase activity of DAF-12 ligand (dafachronic acid, DA) induced treatment. [N=3 independent experiments (mean±SD). *p<0.05 **p<0.01 and ***p<0.001, by one-way ANOVA with Tukey's multiple comparisons test]. Panel D) Schematic diagram showing that addition of AIC106 or inhibition of DAF-12 ligand synthesis, which leads to un-liganded DAF-12 may result in enhanced HLH-30 expression. Panel E) Dafadine-A (DFA), a specific inhibitor of key enzyme required for synthesis of DAF-12 ligand induces HLH-30 expression. Immunoblot for GFP was performed on protein lysate of HLH-30; GFP (MAH235) young adult worms treated with DFA or DMSO-control for 24 hours. Panel F) Protection against mitochondrial toxin (FCCP) was determined by quantifying survival of young adult worms treated 24 hours with DFA or DMSO-control. [N=3 independent experiments (mean±SD). **p<0.01, by two-way ANOVA with Tukey's multiple comparisons test]. Panel G) Motor function in day-7 NL5901 worms were quantified by scoring number of thrashes for an individual worm over the period of 30 seconds (dots) in DFA and DMSO-control treatment. [N=3 independent experiments (mean±SD). **p<0.01, by unpaired t-test] […] [N=3 independent experiments (mean±SD). *p<0.05, by one-way ANOVA with Tukey's multiple comparisons test].
FIG. 29, panels A-C: AIC106 modulates DAF-12 activity. […] Luciferase activity was measured to quantify DAF-12 activity. Panel C) Dose dependent increase in DAF-12 activity after treatment with known DAF-12 ligand, dafachronic acid (DA) was determined by quantifying luciferase activity. […]
dafachronic acid [reference compound]: the “DAF-12 activity (luciferase)” value is listed as “increase DAF-12 activity in a dose dependent manner”.
